Reference: EP0450065A1, “ANTIVIRAL AGENT” (priority 1988, dated 1990)
Read-outs that look alike come from different tables or passages of the source.

How the values were obtained:
Assay type in all cases: cell-based
[1] = test system: herpes simplex virus type 1 (HF strain); assay: Control of CPE (cytopathic effect) manifestation in vero cells; set-up: key to Cytopathic effect [CPE] (3days) Average / Cytopathic effect [CPE] (5days) Average / Cytopathic effect [CPE] (6days) Average: CPE score: 0 none, 0.5 minute spots, 1 = 25%, 2 = 50%, 3 = ≥75% cells; key to Cytopathic effect [CPE] (3days) △CPE / Cytopathic effect [CPE] (5days) △CPE / Cytopathic effect [CPE] (3days) ΔCPE / Cytopathic effect [CPE] (6days) ΔCPE: ΔCPE = difference of average CPE score (0–3 scale) from control; settings: 100 μg/ml
Procedure: In vitro antiviral activity of Compound A against herpes simplex virus type 1 (HF strain) Compound A was tested for antiviral effect by the following two methods.
(§1) Vero cells cultured and grown in a monolayer on microplates to test for cytopathic effect due to viral infection, with solutions of Compound A diluted to varying ratios and solutions of virus diluted to varying ratios added severally thereto in a volume of 0.1 ml, were cultured under the conditions of 5% CO₂ and 37°C and were examined for CPE manifestation under a microscope. The observation was continued for five to six days.
(§2) The degree of CPE brought about by viral infection was rated on the five-point scale, wherein 3 stands for CPE observed on not less than 75% of cultured cells, 2 for CPE observed on 50% of cultured cells, 1 for CPE observed on 25% of cultured cells, 0.5 for occurrence of one to two extremely minute DPE spots, and 0 for perfect absence of recognizable CPE. The CPE scores obtained at the four holes in each microplate were averaged and the difference of the average from the average obtained in the control (omitting the treatment with a chemical) was reported as ΔCPE.
In vitro antiviral effect of Compound A against herpes simplex virus type 1 (HF strain) The test was carried out by following the procedure of Example 3.

[2] = test system: herpes simplex virus type 2 (169 strain); assay: as above; set-up: key to Cytopathic effect [CPE] (3days) Average / Cytopathic effect [CPE] (5days) Average / Cytopathic effect [CPE] (6days) Average: CPE score 0-3: 3 = ≥75% cells, 2 = 50%, 1 = 25%, 0 = none; settings: 100 μg/ml, HSV-2 (169)
Procedure: as §1, §2
In vitro antiviral activity of Compound A against herpes simplex virus type 2 (169 strain) The test was carried out by following the procedure of Example 3.

[3] = test system: herpes simplex virus type 1 (KOS strain); assay: as above; settings: 100 μg/ml, HSV-1 (KOS), Example 7
Procedure: as §1, §2
(§3) Antiviral activity of Compound A and Compound B against herpes simplex virus type 1 (KOS strain) The test was carried out by following the procedure of Example 3.

[4] = test system: herpes simplex virus type 1 (KOS strain); assay: 50% Tissue culture infective dose (TCID50), Read-Munch method, negative logarithm of virus dilution; set-up: key to Cytopathic effect [CPE] (5days) TCID50 / Cytopathic effect [CPE] (3days) TCID50: TCID50 as negative log of maximum virus dilution ratio
Procedure: The amount of virus infecting 50% of tissues (TCID₅₀) was determined by the Read-Munch method and expressed in negative logarithm of the maximum radio of dilution of virus. The difference of the amount thus determined from the amount found in the control (omitting the treatment with a chemical) was reported as ΔTCID₅₀. A sample whose ΔCPE's found on the last day of observation and on each of the days spent for the observation exceeded 1.0 was evaluated as effective.
as §3

[5] = test system: herpes simplex virus type 1 (KOS strain); assay: One-step growth of virus, plaque assay with vero cells; settings: 100 μg/ml, 24 hours; for inhibition at 100 µg/mL / log reduction at 100 µg/mL: Human alphaherpesvirus 1, Vero, 24 h; for inhibition at 100 µg/mL: read-out: Intracellular virus Control ratio %; for log reduction at 100 µg/mL: read-out: Intracellular virus Control ratio -logT/C
Procedure: Antiviral activity of Compound A and Compound B against one-step growth of herpes simplex virus type 1 (KOS strain) Cells grown in a monolayer, with a sample of a given compound diluted in a varying ratio added, were pretreated for 15 minutes. Then, the pretreated cells were infected with the herpes simplex virus type 1 (KOS strain) at an infecting ratio of 0.25 and left standing for 24 hours. At the end of the standing, the intracellular and extracellular amounts of virus were determined by the plaque assay with vero cells.

[6] = HSV-1 (HF strain), Example 5, difference from control
[7] = HSV-1 (HF), Example 3, difference from control
[8] = Example 4, difference from control
[9] = Example 6, difference from control
[10] = 100 μg/ml, HSV-1 (KOS), Example 7

Nc1nc2c(ncn2COCCO)c(=O)[nH]1 [ACV, acyclovir, reference compound]
Cytopathic effect [CPE] (3days) Average ([1]; HSV-1 (HF strain), Example 5): 0.875
Cytopathic effect [CPE] (6days) Average ([1]; HSV-1 (HF strain), Example 5): 1.0
Cytopathic effect [CPE] (3days) ΔCPE [1, 6]: 1.875
Cytopathic effect [CPE] (6days) ΔCPE [1, 6]: 2.0
Cytopathic effect [CPE] (3days) Average ([1]; HSV-1 (HF), Example 3): 0
Cytopathic effect [CPE] (5days) Average ([1]; HSV-1 (HF), Example 3): 0
Cytopathic effect [CPE] (3days) △CPE [1, 7]: 1.5
Cytopathic effect [CPE] (5days) △CPE [1, 7]: 1.75
Cytopathic effect [CPE] (3days) Average ([2]; Example 4): 0
Cytopathic effect [CPE] (5days) Average ([2]; Example 4): 0
Cytopathic effect [CPE] (3days) △CPE [2, 8]: 1.5
Cytopathic effect [CPE] (5days) △CPE [2, 8]: 3.05
Cytopathic effect [CPE] (3days) Average ([2]; Example 6): 0
Cytopathic effect [CPE] (6days) Average ([2]; Example 6): 0
Cytopathic effect [CPE] (3days) △CPE [2, 9]: > 2.5
Cytopathic effect [CPE] (6days) △CPE [2, 9]: 3.0
Cytopathic effect [CPE] (3days) Average [3]: 0
Cytopathic effect [CPE] (5days) Average [3]: 0
Cytopathic effect [CPE] (3days) △CPE ([3]; difference from control): 2.0
Cytopathic effect [CPE] (5days) △CPE ([3]; difference from control): 3.0
Cytopathic effect [CPE] (3days) TCID50 [4, 10]: 3.5
Cytopathic effect [CPE] (5days) TCID50 [4, 10]: 3.5
log reduction at 100 µg/mL ([4]; Human alphaherpesvirus 1, 72 h, read-out: Cytopathic effect [CPE] (3days) △TCID50): 2
log reduction at 100 µg/mL ([4]; Human alphaherpesvirus 1, 120 h, read-out: Cytopathic effect [CPE] (5days) △TCID50): 2.5
Intracellular virus Average [5]: 8.50×10^2 /dish
inhibition at 100 µg/mL ([5]; extracellular virus): > 99.9%
log reduction at 100 µg/mL ([5]; extracellular virus): 5.78
inhibition at 100 µg/mL [5]: > 99.9%
log reduction at 100 µg/mL [5]: 5.68
